From ChEMBL document CHEMBL2163299, “Cytotoxic effects of combination of oxidosqualene cyclase inhibitors with atorvastatin in human cancer cells” (J Med Chem, 2012)
The source made the active and inactive calls. No cut-off for these calls is given here.

How the values were obtained:
[1] = Chemical stability of compound at pH 4.0 after 24 hrs; assay type: physicochemical; conditions: buffer, pH 4, 24 h
Caco-2 = experiment: cells; conditions: Homo sapiens, Caco-2, 72 h
Description: Cytotoxicity against human Caco2 cells after 72 hrs by MTT assay

Lanosterol synthase = molecular target: T1, Lanosterol synthase (Homo sapiens, UniProt P48449); experiment: Inhibition of human liver microsome 2,3-OSC after 1 hr by Silica gel plate phosphor imaging
T1 sequence (P48449 whole entry): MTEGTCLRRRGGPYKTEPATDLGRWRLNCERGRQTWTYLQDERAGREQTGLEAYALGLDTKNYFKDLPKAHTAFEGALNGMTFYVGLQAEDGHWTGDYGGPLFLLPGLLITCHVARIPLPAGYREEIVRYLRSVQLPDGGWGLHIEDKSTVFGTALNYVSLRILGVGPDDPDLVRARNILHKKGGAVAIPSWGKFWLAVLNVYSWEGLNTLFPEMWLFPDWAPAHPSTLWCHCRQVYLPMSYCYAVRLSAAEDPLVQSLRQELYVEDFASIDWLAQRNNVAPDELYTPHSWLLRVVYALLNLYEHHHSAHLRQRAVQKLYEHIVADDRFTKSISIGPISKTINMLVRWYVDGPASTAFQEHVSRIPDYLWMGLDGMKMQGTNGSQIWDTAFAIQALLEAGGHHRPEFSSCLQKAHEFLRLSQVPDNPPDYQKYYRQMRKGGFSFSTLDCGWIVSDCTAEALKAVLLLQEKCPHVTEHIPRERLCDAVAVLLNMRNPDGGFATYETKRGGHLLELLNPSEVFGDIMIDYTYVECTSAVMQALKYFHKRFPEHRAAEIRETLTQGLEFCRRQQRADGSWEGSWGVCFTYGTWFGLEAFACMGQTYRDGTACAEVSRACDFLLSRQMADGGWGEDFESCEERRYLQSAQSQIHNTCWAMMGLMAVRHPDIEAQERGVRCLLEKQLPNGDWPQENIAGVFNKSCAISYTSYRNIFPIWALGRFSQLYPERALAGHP

[2] = Cytotoxicity against human HCEC cells at 2 to 10 uM after 72 hrs in by MTT assay in presence of atorvastatin; assay type: cell-based
LN-229 [3] = experiment: Cytotoxicity against human LN229 cells at 4 to 10 uM after 72 hrs by MTT assay; assay type: functional, cell-based
LN-18 [4] = experiment: Induction of [14C]acetate incorporation in human LN18 cells at 2 uM after 24 hrs by Beta-counting; assay type: functional, cell-based
LNCaP = experiment: Cytotoxicity against human LNCAP cells after 72 hrs by MTT assay; assay type: functional, cell-based
[5] = (§1) Cytotoxicity against human LN229 cells assessed as reduction in cell survival after 72 hrs by MTT assay; assay type: functional, cell-based; conditions: LN-229, 72 h
LN-229 [6] = experiment: as §1; assay type: functional, cell-based
LN-18 [7] = experiment: (§2) Cytotoxicity against human LN18 cells assessed as reduction in cell survival after 72 hrs by MTT assay; assay type: functional, cell-based
[8] = as §2; assay type: functional, cell-based; conditions: LN-18, 72 h
LN-18 [9] = experiment: Inhibition of DNA synthesis in human LN18 cells assessed as inhibition of tritiated thymidine incorporation at 1 to 3 uM after 24 hrs by beta counting; assay type: functional, cell-based
LN-229 [10] = experiment: Cytotoxicity against human LN229 cells at 4 to 10 uM after 72 hrs by MTT assay in presence of atorvastatin; assay type: functional, cell-based
MCF7 = experiment: cells; conditions: Homo sapiens, MCF7, 72 h
Description: Cytotoxicity against human MCF7 cells after 72 hrs by MTT assay

LN-18 [11] = experiment: Cytotoxicity against human LN18 cells at 2 to 10 uM after 72 hrs by MTT assay in presence of atorvastatin; assay type: functional, cell-based
[12] = Chemical stability of compound at pH 7.4 after 24 hrs; assay type: physicochemical; conditions: buffer, pH 7.4, 24 h
[13] = pampa, pH 6.5
Description: Permeability of compound at pH 6.5 assessed as compound binding to lipid membrane by PAMPA

[14] = Cytotoxicity against human LN229 cells assessed as decrease in cell survival at 2 uM after 72 hrs by MTT assay in presence of 2.5 uM atorvastatin; assay type: functional, LN-229
LN-229 [15] = experiment: Inhibition of DNA synthesis in human LN229 cells assessed as inhibition of tritiated thymidine incorporation at 1 to 3 uM after 24 hrs by beta counting; assay type: functional, cell-based
LN-229 [16] = experiment: Induction of [14C]acetate incorporation in human LN229 cells at 2 uM after 24 hrs by Beta-counting; assay type: functional, cell-based
A549 = experiment: Cytotoxicity against human A549 cells after 72 hrs by MTT assay; assay type: functional, cell-based; conditions: A549, 72 h
[17] = Cytotoxicity against human LNZ308 cells after 72 hrs by MTT assay; assay type: functional, cell-based; conditions: LNZ308, 72 h
LN-18 [18] = experiment: Induction of [14C]acetate incorporation in human LN18 cells at 2 uM after 24 hrs by Beta-counting in presence of 2.5 to 10 uM atorvastatin; assay type: functional, cell-based
KB = experiment: Cytotoxicity against human KB cells after 72 hrs by MTT assay; assay type: functional, cell-based
physchem = conditions: 1-octanol/TAPSO buffer, pH 7.4
Description: 1-Octanol-TAPSO buffer distribution coefficient, log D of the compound at pH 7.4 by shake-flask method

LN-229 [19] = experiment: Induction of [14C]acetate incorporation in human LN229 cells at 2 uM after 24 hrs by Beta-counting in presence of 2.5 to 10 uM atorvastatin; assay type: functional, cell-based
OVCAR = experiment: Cytotoxicity against human OVCAR cells after 72 hrs by MTT assay; assay type: functional, cell-based
cells = conditions: Homo sapiens, HCEC, 72 h
Description: Cytotoxicity against human HCEC cells assessed as reduction in cell survival after 72 hrs by MTT assay

in vitro = conditions: pampa, pH 6.5
Description: Apparent permeability of compound at pH 6.5 by PAMPA

[20] = Cytotoxicity against human Me300 cells after 72 hrs by MTT assay; assay type: functional, cell-based; conditions: Me300, 72 h
HeLa = experiment: cells; conditions: Homo sapiens, 72 h
Description: Cytotoxicity against human HeLa cells after 72 hrs by MTT assay

LN-18 [21] = experiment: Cytotoxicity against human LN18 cells at 2 to 4 uM after 72 hrs by MTT assay in presence of atorvastatin; assay type: functional, cell-based
[22] = Cytotoxicity against human HCEC cells assessed as cell death at 4 to 10 uM after 72 hrs by MTT assay in presence of atorvastatin; assay type: cell-based
LN-229 [23] = experiment: Cytotoxicity against human LN229 cells at 2 uM after 72 hrs by MTT assay in presence of atorvastatin; assay type: functional, cell-based
LN-18 [24] = experiment: Cytotoxicity against human LN18 cells after 72 hrs by MTT assay in presence of atorvastatin; assay type: functional, cell-based

Row | SMILES | Stability [1] | IC50 (Caco-2) [µM] | IC50 (LNCaP) [µM] | IC50 [5] [µM] | Activity (LN-229 [6]) | Activity (LN-18 [7]) | IC50 [8] [µM] | inhibition (LN-18 [9]) | IC50 (MCF7) [µM] | Stability [12] | permeability [13] [%] | inhibition (LN-229 [15]) | IC50 (A549) [µM] | IC50 [17] [µM] | IC50 (KB) [µM] | logD (physchem) | IC50 (OVCAR) [µM] | IC50 (cells) [µM] | Papp (in vitro) [×10⁻⁶ cm/s] | IC50 [20] [µM] | other results
1 | CCN(CCO)CCCCOc1ccc2c(-c3ccc(Br)cc3)nsc2c1.Cl | Stable | 1.04 | > 30 | 2.9 | Dose-dependent effect | Dose-dependent effect | 2 | Active | 5.58 | Stable | 37 | Active | 5.14 | 4.7 | 4.66 | 3.39 | 16.7 | 2.2 | 0.22 | 6.2 | IC50 (Lanosterol synthase): 0.0178 µM; Activity [2]: Non-toxic; Activity (LN-229 [3]): Active; Activity (LN-18 [4]): Active; Activity (LN-229 [10]): Active; Activity (LN-18 [11]): Active; Activity [14]: 80%; Activity (LN-229 [16]): Active; Activity (LN-18 [18]): Active; Activity (LN-229 [19]): Active; IC50 (HeLa): 6.37 µM
2 | C=CCN(C)CCCCCCOc1ccc(C(=O)c2ccc(Br)cc2)c(F)c1.O=C(O)/C=C/C(=O)O | Stable | 2.99 | > 30 | 8.8 | Dose-dependent effect | Dose-dependent effect | 6.1 | Active | 6.77 | Stable | 20 | Active | 11.3 | 5.26 | 2.88 | 3.92 | > 30 | 3.8 | 0.12 | > 30 | Activity (LN-18 [21]): Active; Activity (LN-18 [4]): Active; Activity [22]: Toxic; Activity (LN-229 [16]): Active; Activity (LN-18 [18]): inactive; Activity (LN-229 [23]): Active; Activity (LN-229 [19]): inactive; IC50 (HeLa): 2.89 µM
3 | C=CCN(C)Cc1ccc(-c2ccc(C(=O)c3ccc(Br)cc3)cc2)cc1.Cl | Stable | 3.81 | 5.07 | 17.9 | Dose-dependent effect | Dose-dependent effect | 2.3 | Active | 25.7 | Stable | 58 | Active | 6.19 | 14.4 | 2.03 | 3.13 | > 30 | > 30 | 0.64 | 13.9 | IC50 (Lanosterol synthase): 0.008 µM; Activity (LN-18 [24]): Active; IC50 (HeLa): 2.69 µM
